This note sets out measurements from publication PMC4110927 (Virology, 2013).

“And” between values parts separate entries of the source, which are not always exact repeats. Equal values may be shown once. Where a SMILES comes first, the peptide text is derived from it. Where no end group is shown, it is not given here.

For one assay, the target named is soluble HLA A*0201 or B*0702 (allele not stated for the peptide family). As to the kind of experiment: fluorescence polarisation.
Settings: not given
In general terms: In fluorescence polarisation assays a small probe gives low polarisation when free and higher when bound to something large.
In turn, Env gp160/120 341-349 […] (peptide) yielded a logIC50 of 4.36.

Take Gag p24 143-151 […] (peptide): the logIC50 was 4.34 and 3.92.

The subject of a further assay is autologous PBMC of subject 8. Put plainly: Memory. As to conditions: early cART / following cART (8.3–10.1 yr). Format: cell-based, human.
On to `CSCC[C@H](NC(=O)[C@@H]1CCCN1)C(=O)N[C@@H](CS)C(=O)N[C@@H](Cc1ccccc1)C(=O)NCC(=O)N[C@@H](Cc1c[nH]c2ccccc12)C(=O)N[C@@H](CS)C(=O)N[C@@H](Cc1ccccc1)C(=O)N[C@@H](CCCCN)C(=O)N[C@@H](CC(C)C)C(=O)O` (H-PMCFGWCFKL-OH; N-terminus and C-terminus assumed), for which the “memory T cell response (IFN-γ ELISPOT), in words” value (shortened to “memory T cell response”) is “recovered during therapy”.

Staying with this assay, now noted: late cART (>12.4 yr).
Regarding `CSCC[C@H](NC(=O)[C@@H]1CCCN1)C(=O)N[C@@H](CS)C(=O)N[C@@H](Cc1ccccc1)C(=O)NCC(=O)N[C@@H](Cc1c[nH]c2ccccc12)C(=O)N[C@@H](CS)C(=O)N[C@@H](Cc1ccccc1)C(=O)N[C@@H](CCCCN)C(=O)N[C@@H](CC(C)C)C(=O)O` (H-PMCFGWCFKL-OH; N-terminus and C-terminus assumed), the “memory T cell response” value was “eventual loss”.

The same assay, now with this note: over the course of infection, time points as worded.
With `CC(C)C[C@H](NC(=O)[C@H](CCCCN)NC(=O)[C@H](Cc1ccccc1)NC(=O)[C@H](CS)NC(=O)[C@H](Cc1c[nH]c2ccccc12)NC(=O)CNC(=O)[C@H](Cc1ccccc1)NC(=O)[C@H](CS)NC(=O)[C@H](CC(C)C)NC(=O)[C@@H]1CCCN1)C(=O)O` (H-PLCFGWCFKL-OH; N-terminus and C-terminus assumed), the “memory T cell response” value was “no-to-low memory responses”.

In the case of `CSCC[C@H](NC(=O)[C@@H]1CCCN1)C(=O)N[C@@H](CS)C(=O)N[C@@H](Cc1ccccc1)C(=O)NCC(=O)N[C@@H](Cc1c[nH]c2ccccc12)C(=O)N[C@@H](CS)C(=O)N[C@@H](Cc1ccccc1)C(=O)N[C@@H](CCCCN)C(=O)N[C@@H](CC(C)C)C(=O)O` (H-PMCFGWCFKL-OH; N-terminus and C-terminus assumed), the “memory T cell response” value is “no-to-low memory responses”.

For the next assay, the target named is soluble HLA-A*0201 (Homo sapiens, UniProt P04439, D140Y/D185E/D98H/E176V/E277Q/G131W/G231S/I119V/I121R/I166T/I218V/L300P/L318F/N151K/N90K/P208A/P217A/Q86G/Q94H/R138H/R169H/T345S). As to the kind of experiment: Fluorescence polarization.
Settings: not given
The class given is binding.
The term IC50 denotes the concentration needed to halve the response being measured. Low values mean greater potency in that assay, high ones weaker potency in that assay. As to `CC(C)C[C@H](NC(=O)[C@H](CCCCN)NC(=O)[C@H](Cc1ccccc1)NC(=O)[C@H](CS)NC(=O)[C@H](Cc1c[nH]c2ccccc12)NC(=O)CNC(=O)[C@H](Cc1ccccc1)NC(=O)[C@@H](NC(=O)[C@H](CC(C)C)NC(=O)[C@@H]1CCCN1)[C@@H](C)O)C(=O)O`, it took 3020 µM to reach half-maximal inhibition (IC50).

`CC(C)C[C@H](NC(=O)[C@@H](N)[C@@H](C)O)C(=O)N[C@@H](CC(N)=O)C(=O)N[C@@H](C)C(=O)N[C@@H](Cc1c[nH]c2ccccc12)C(=O)N[C@H](C(=O)N[C@@H](CCCCN)C(=O)N[C@H](C(=O)N[C@H](C(=O)O)C(C)C)C(C)C)C(C)C` showed an IC50 of 14.5 µM.

With ALNAWVKVV, the IC50 is 8.51 µM.

As for IGPGIAFYAT, the IC50 is 813 µM.

Consider IGPGRAFYAA, for which the IC50 was 30.2 µM.

Take IGPGRAFYAT: it took 437 µM to reach half-maximal inhibition (IC50).

On to IGSGRAFYAT, for which inhibition was half-maximal at 3630 µM (IC50).

In turn, PITFGWCFKL had an IC50 of 2240 µM.

For the compound PLNAWVKVV, the IC50 is 64.6 µM.

Consider PLTLGWCFKL, for which the IC50 was 1260 µM.

PVTFGWCFKL had an IC50 of 3020 µM.

For the compound SLFNTIATL, the IC50 was 8.32 µM.

The compound SLFNTVAAL [SLFNTVAAL] showed an IC50 of 6.92 µM.

Compound SLFNTVATL gave an IC50 of 6.46 µM.

As to SLFNTVATP, the IC50 is 174 µM.

Regarding TLDAWVKVV, the IC50 is 20 µM.

The compound TLSAWVKVV gave an IC50 of 15.1 µM.

In another assay the target is soluble HLA-B*0702 (Homo sapiens, UniProt P01889). As to the kind of experiment: Fluorescence polarization. The class given is binding.
Settings: not given
Turning to `CC(C)C[C@H](NC(=O)[C@@H]1CCCN1C(=O)[C@@H](NC(=O)[C@H](CCC(N)=O)NC(=O)[C@@H]1CCCN1C(=O)[C@H](CCCNC(=N)N)NC(=O)[C@@H](NC(=O)[C@@H]1CCCN1C(=O)[C@@H](N)Cc1ccccc1)C(C)C)C(C)C)C(=O)O`, the IC50 is 6.76 µM.

Compound `CC[C@H](C)[C@H](NC(=O)[C@H](CCCNC(=N)N)NC(=O)[C@H](CCCCN)NC(=O)[C@H](CCCNC(=N)N)NC(=O)[C@@H](NC(=O)[C@H](CC(N)=O)NC(=O)[C@H](CC(N)=O)NC(=O)[C@H](CC(N)=O)NC(=O)[C@@H]1CCCN1C(=O)[C@@H](N)CCCNC(=N)N)[C@@H](C)O)C(=O)O` had an IC50 of 20.9 µM.

`CC(C)C[C@H](NC(=O)[C@@H](NC(=O)[C@H](CCCNC(=N)N)NC(=O)[C@@H]1CCCN1C(=O)[C@@H](N)CO)[C@@H](C)O)C(=O)N[C@@H](CC(N)=O)C(=O)N[C@@H](C)C(=O)N[C@@H](Cc1c[nH]c2ccccc12)C(=O)N[C@H](C(=O)O)C(C)C` showed an IC50 of 15.1 µM.

The compound `CC[C@H](C)[C@H](NC(=O)CNC(=O)[C@@H]1CCCN1C(=O)CNC(=O)[C@@H]1CCCN1C(=O)[C@@H](N)[C@@H](C)O)C(=O)N[C@@H](CCCNC(=N)N)C(=O)N[C@@H](Cc1ccccc1)C(=O)N1CCC[C@H]1C(=O)N[C@@H](CC(C)C)C(=O)O` had an IC50 of 2.51 µM.

Turning to `CC[C@H](C)[C@H](NC(=O)CNC(=O)[C@@H]1CCCN1C(=O)CNC(=O)[C@@H]1CCCN1C(=O)[C@@H](N)[C@@H](C)O)C(=O)N[C@@H](CCCNC(=N)N)C(=O)N[C@@H](Cc1ccc(O)cc1)C(=O)N1CCC[C@H]1C(=O)N[C@H](C(=O)O)C(C)C`, the IC50 was 5.5 µM.

`CC(C)C[C@H](NC(=O)[C@@H]1CCCN1C(=O)[C@H](Cc1ccccc1)NC(=O)[C@H](CCCNC(=N)N)NC(=O)[C@@H]1CCCN1C(=O)CNC(=O)[C@@H]1CCCN1C(=O)CNC(=O)[C@@H]1CCCN1C(=O)[C@@H](N)[C@@H](C)O)C(=O)O` showed an IC50 of 4.57 µM.

For the compound `CC(C)C[C@H](NC(=O)[C@@H]1CCCN1C(=O)[C@H](Cc1ccccc1)NC(=O)[C@H](CCCNC(=N)N)NC(=O)[C@@H](NC(=O)CNC(=O)[C@@H]1CCCN1C(=O)CNC(=O)[C@@H]1CCCN1C(=O)[C@@H](N)[C@@H](C)O)[C@@H](C)O)C(=O)O`, the IC50 was 2.88 µM.

`CC(C)C[C@H](NC(=O)[C@@H]1CCCN1C(=O)[C@H](Cc1ccc(O)cc1)NC(=O)[C@H](CCCNC(=N)N)NC(=O)[C@@H](NC(=O)CNC(=O)[C@@H]1CCCN1C(=O)CNC(=O)[C@@H]1CCCN1C(=O)[C@@H](N)[C@@H](C)O)C(C)C)C(=O)O` showed an IC50 of 4.37 µM.

In turn, `CSCC[C@H](NC(=O)[C@@H]1CCCN1C(=O)[C@@H](N)CCCNC(=N)N)C(=O)N[C@H](C(=O)N[C@@H](Cc1ccc(O)cc1)C(=O)N[C@@H](CCCCN)C(=O)N[C@@H](C)C(=O)N[C@@H](C)C(=O)N[C@@H](CC(C)C)C(=O)O)[C@@H](C)O` [RPMTYKAAL] showed an IC50 of 11 µM.

On to FPARPQVPL, for which the IC50 was 4.57 µM.

The compound FPIRPQVPL had a 50% inhibitory concentration (IC50) of 4.17 µM.

Consider FSVRPQVPL, for which the IC50 was 70.8 µM.

IPGPGRHPL showed an IC50 of 3.24 µM.

PPRTLNAWV: the IC50 was 16.6 µM.

With RPITYKAAL [RPITYKAAL], the IC50 was 7.41 µM.

With RPMTCKGAL [RPMTCKGAL], half-maximal inhibition (IC50) required 5.5 µM.

Consider RPMTRKAAL [RPMTRKAAL], for which the half-inhibitory concentration (IC50) was 6.61 µM.

The compound RPMTWKAAL [RPMTWKAAL] had an IC50 of 7.24 µM.

The compound RPMTWKGAL [RPMTWKGAL] showed an IC50 of 7.08 µM.

RPMTYKGAL [RPMTYKGAL] gave a concentration for half-maximal inhibition (IC50) of 7.76 µM.

Consider RPNNDTRKSI, for which half-maximal inhibition (IC50) required 7.08 µM.

RPNNNTGKRI had an IC50 of 22.9 µM.

RPNNNTRKCI had an IC50 of 42.7 µM.

RPNNNTRKSI gave an IC50 of 3.63 µM.

The compound RPNNNTRKSL showed an IC50 of 4.9 µM.

Compound RPNNNTRKST had an IC50 of 11 µM.

In the case of RPNNNTRRSI, the IC50 was 9.77 µM.

RPNNSTRKSI: the IC50 is 7.41 µM.

Regarding RPSNNTRKRI, the IC50 was 14.8 µM.

RPTNNTRKSI gave an IC50 of 5.62 µM.

As to RSNNNTRKSI, half-maximal inhibition (IC50) required 21.4 µM.

Compound SPRALNAWV gave an IC50 of 11.7 µM.

In turn, SPRPLNAWV had an IC50 of 15.1 µM.

SPRTLDAWV showed an IC50 of 24 µM.

In turn, SPRTLSAWV gave an IC50 of 1200 µM.

With SPVRPQVPL, the IC50 was 4.68 µM.

The compound TKGPGIRFPL gave an IC50 of 257 µM.

For TPGPGIRFPI, the midpoint of inhibition, the IC50, lay at 5.89 µM.

For the compound TPGPGIRYPL, the IC50 was 6.03 µM.

TPGPGIRYPM showed an IC50 of 3.16 µM.

In turn, TPGPGPRYPL had an IC50 of 5.89 µM.

Compound TPGPGPRYPM gave an IC50 of 3.72 µM.

Regarding TPGPGPRYPV, the IC50 is 6.61 µM.

With TPGPGTRYPL, the IC50 was 3.72 µM.

In the case of TSGPGTRFPL, the midpoint of inhibition, the IC50, lay at 70.8 µM.
